Measurements published in patent US11702404B2, “GLP-1R modulating compounds” (priority 2019, dated 2023).
Read-outs that look alike come from different tables or passages of the source.

What was measured:
[1] = Microsomal stability, human liver microsomes (predicted hepatic clearance); conditions: predicted from in vitro microsomal stability data
[2] = target: GLP-1R (Homo sapiens, UniProt P43220); test: GLP-1R activation: cAMP increase in CHO cells stably expressing GLP-1R; type: cell-based
[3] = cAMP increase, CHO cells stably expressing GLP-1R, 10 point dose response, 30 minutes incubation, read-out: EC50

Chain of GLP-1R (P43220 24-463): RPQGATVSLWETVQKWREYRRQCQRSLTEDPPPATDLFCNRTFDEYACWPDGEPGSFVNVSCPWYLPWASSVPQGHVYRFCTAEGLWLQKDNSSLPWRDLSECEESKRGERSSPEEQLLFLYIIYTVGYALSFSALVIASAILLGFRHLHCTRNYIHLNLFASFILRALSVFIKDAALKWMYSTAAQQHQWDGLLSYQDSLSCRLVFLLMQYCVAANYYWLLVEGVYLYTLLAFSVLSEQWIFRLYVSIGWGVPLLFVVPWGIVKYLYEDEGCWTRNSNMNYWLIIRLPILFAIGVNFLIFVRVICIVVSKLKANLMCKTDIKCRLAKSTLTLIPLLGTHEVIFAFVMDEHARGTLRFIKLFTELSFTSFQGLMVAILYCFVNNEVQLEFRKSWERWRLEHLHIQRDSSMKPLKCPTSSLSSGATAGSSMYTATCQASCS

Row | SMILES | Predicted Hepatic Clearance (Pred. Cl.) [1] [mL/min/kg] | EC50 [2, 3] [nM] | EC50 ([2]; read-out: EC50) [nM] | EC50 ([2]; EC50 (nM)) [nM]
1 | COC(CN)Cn1c(Cc2ccc(-c3cccc(OCc4ccc(C#N)cc4F)n3)cc2F)nc2ccc(C(=O)O)cc21 (single isomer, unassigned) [Example 339, 1-(3-amino-2-methoxypropyl)-2-(4-(6-((4-cyano-2-fluorobenzyl)oxy)pyridin-2-yl)-2-fluorobenzyl)-1H-benzo[d]imidazole-6-carboxylic acid] | <1.83 | 566 | – | –
2 | COC(CN)Cn1c(Cc2ccc(-c3cccc(OCc4ccc(C#N)cc4F)n3)cc2F)nc2ccc(C(=O)O)cc21 (single isomer, unassigned) [Example 340, 1-(3-amino-2-methoxypropyl)-2-(4-(6-((4-cyano-2-fluorobenzyl)oxy)pyridin-2-yl)-2-fluorobenzyl)-1H-benzo[d]imidazole-6-carboxylic acid] | <1.83 | 44.1 | – | –
3 | COC(CNC(C)=O)Cn1c(Cc2ccc(-c3cccc(OCc4ccc(C#N)cc4F)n3)cc2F)nc2ccc(C(=O)O)cc21 (single isomer, unassigned) [Example 341, 1-(3-acetamido-2-methoxypropyl)-2-(4-(6-((4-cyano-2-fluorobenzyl)oxy)pyridin-2-yl)-2-fluorobenzyl)-1H-benzo[d]imidazole-6-carboxylic acid] | 5.67 | 19.7 | – | –
4 | COC(CNC(C)=O)Cn1c(Cc2ccc(-c3cccc(OCc4ccc(C#N)cc4F)n3)cc2F)nc2ccc(C(=O)O)cc21 (single isomer, unassigned) [Example 342, 1-(3-acetamido-2-methoxypropyl)-2-(4-(6-((4-cyano-2-fluorobenzyl)oxy)pyridin-2-yl)-2-fluorobenzyl)-1H-benzo[d]imidazole-6-carboxylic acid] | 4 | 3360 | – | –
5 | COCCn1c(C(C)c2ccc(-c3cccc(OCc4ccc(C#N)cc4F)n3)cc2)nc2ccc(C(=O)O)cc21 (single isomer, unassigned) [Example 418, 2-(1-(4-(6-((4-cyano-2-fluorobenzyl)oxy)pyridin-2-yl)phenyl)ethyl)-1-(2-methoxyethyl)-1H-benzo[d]imidazole-6-carboxylic acid] | 4.83 | 18.3 | – | –
6 | CC(=O)N1CC[C@@H]1Cn1c(Cc2cc(F)c(-c3cccc(OCc4ccc(C#N)cc4F)n3)cc2F)nc2ccc(C(=O)O)cc21 (single isomer, unassigned) [Example 689] | 5.17 | – | 0.56 | –
7 | N#Cc1ccc(COc2cccc(-c3cc(F)c(Cc4nc5ccc(C(=O)O)cc5n4C[C@@H]4CCO4)cc3F)n2)c(F)c1 (single isomer, unassigned) [Example 757] | 4.33 | 0.03 | – | –
8 | CO[C@H]1COC[C@H]1n1c(Cc2cc(F)c(-c3cccc(OCc4ccc(C#N)cc4F)n3)cc2F)nc2ccc(C(=O)O)cc21 (single isomer, unassigned) [Example 890, 2-(4-(6-((4-cyano-2-fluorobenzyl)oxy)pyridin-2-yl)-2,5-difluorobenzyl)-1-(cis-4-methoxytetrahydrofuran-3-yl)-1H-benzo[d]imidazole-6-carboxylic acid] | 5.17 | 0.49 | – | –
9 | CO[C@H]1COC[C@H]1n1c(Cc2cc(F)c(-c3cccc(OCc4ccc(C#N)cc4F)n3)cc2F)nc2ccc(C(=O)O)cc21 (single isomer, unassigned) [Example 891, 2-(4-(6-((4-cyano-2-fluorobenzyl)oxy)pyridin-2-yl)-2,5-difluorobenzyl)-1-(cis-4-methoxytetrahydrofuran-3-yl)-1H-benzo[d]imidazole-6-carboxylic acid] | 6.67 | 0.25 | – | –
10 | CC1(C)CC(Cn2c(Cc3ccc(-c4cccc(OCc5ccc(C#N)cc5F)n4)cc3F)nc3ccc(C(=O)O)cc32)O1 (single isomer, unassigned) [Example 904, 2-(4-(6-((4-cyano-2-fluorobenzyl)oxy)pyridin-2-yl)-2-fluorobenzyl)-1-((4,4-dimethyloxetan-2-yl)methyl)-1H-benzo[d]imidazole-6-carboxylic acid] | 11.2 | 311 | – | –
11 | CC1(C)CC(Cn2c(Cc3ccc(-c4cccc(OCc5ccc(C#N)cc5F)n4)cc3F)nc3ccc(C(=O)O)cc32)O1 (single isomer, unassigned) [Example 905, 2-(4-(6-((4-cyano-2-fluorobenzyl)oxy)pyridin-2-yl)-2-fluorobenzyl)-1-((4,4-dimethyloxetan-2-yl)methyl)-1H-benzo[d]imidazole-6-carboxylic acid] | 4.33 | 30.9 | – | –
12 | COCCn1c(Cc2ccc(-c3cccc(OCc4ccc(C#N)cc4F)n3)cc2)nc2ccc(C(=O)O)cc21 [Example 1, 2-(4-(6-((4-Cyano-2-fluorobenzyl)oxy)pyridin-2-yl)benzyl)-1-(2-methoxyethyl)-1H-benzo[d]imidazole-6-carboxylic acid] | 3.3 | 25.4 | – | –
13 | COCCn1c(Cc2ccc(-c3cccc(OCc4ccc(C#N)cc4F)n3)cc2F)nc2ccc(C(=O)O)cc21 [Example 2, 2-(4-(6-((4-cyano-2-fluorobenzyl)oxy)pyridin-2-yl)-2-fluorobenzyl)-1-(2-methoxyethyl)-1H-benzo[d]imidazole-6-carboxylic acid] | 2.33 | 2.3 | – | –
14 | COCCn1c(Cc2ccc(-c3cccc(OCc4ccc(C#N)cc4F)n3)c(F)c2)nc2ccc(C(=O)O)cc21 [Example 3, 2-(4-(6-((4-cyano-2-fluorobenzyl)oxy)pyridin-2-yl)-3-fluorobenzyl)-1-(2-methoxyethyl)-1H-benzo[d]imidazole-6-carboxylic acid] | 3.83 | – | – | 10.3
15 | COCCn1c(Cc2ccc(-c3cccc(OCc4ccc(C#N)cc4F)n3)s2)nc2ccc(C(=O)O)cc21 [Example 4, 2-((5-(6-((4-cyano-2-fluorobenzyl)oxy)pyridin-2-yl)thiophen-2-yl)methyl)-1-(2-methoxyethyl)-1H-benzo[d]imidazole-6-carboxylic acid] | 13.7 | 1570 | – | –
16 | COCCn1c(Cc2ccc(-c3cccc(OCc4ccc(C#N)cc4F)c3)cc2F)nc2ccc(C(=O)O)cc21 [Example 6, 2-((3′-((4-cyano-2-fluorobenzyl)oxy)-3-fluoro-[1,1′-biphenyl]-4-yl)methyl)-1-(2-methoxyethyl)-1H-benzo[d]imidazole-6-carboxylic acid] | 3.5 | 56.1 | – | –
17 | N#Cc1ccc(COc2cccc(-c3ccc(Cc4nc5ccc(C(=O)O)cc5n4Cc4cncn4C4CC4)c(F)c3)n2)c(F)c1 [Example 7, 2-(4-(6-((4-cyano-2-fluorobenzyl)oxy)pyridin-2-yl)-2-fluorobenzyl)-1-((1-cyclopropyl-1H-imidazol-5-yl)methyl)-1H-benzo[d]imidazole-6-carboxylic acid] | 5.17 | 6.34 | – | –
18 | N#Cc1ccc(COc2cccc(-c3ccc(Cc4nc5ccc(C(=O)O)cc5n4Cc4cncn4C4CC4)c(F)c3)c2)c(F)c1 [Example 8, 2-((3′-((4-cyano-2-fluorobenzyl)oxy)-3-fluoro-[1,1′-biphenyl]-4-yl)methyl)-1-((1-cyclopropyl-1H-imidazol-5-yl)methyl)-1H-benzo[d]imidazole-6-carboxylic acid] | 4.33 | 26.4 | – | –
19 | CC1(Cn2c(Cc3ccc(-c4cccc(OCc5ccc(C#N)cc5F)n4)cc3F)nc3ccc(C(=O)O)cc32)CC1 [Example 9, 2-(4-(6-((4-cyano-2-fluorobenzyl)oxy)pyridin-2-yl)-2-fluorobenzyl)-1-((1-methylcyclopropyl)methyl)-1H-benzo[d]imidazole-6-carboxylic acid] | <1.83 | 1.75 | – | –
20 | N#Cc1ccc(COc2cccc(-c3ccc(Cc4nc5ccc(C(=O)O)cc5n4CC4(CF)CC4)c(F)c3)n2)c(F)c1 [Example 10, 2-(4-(6-((4-cyano-2-fluorobenzyl)oxy)pyridin-2-yl)-2-fluorobenzyl)-1-((1-(fluoromethyl)cyclopropyl)methyl)-1H-benzo[d]imidazole-6-carboxylic acid] | 2.83 | 0.57 | – | –
21 | N#Cc1ccc(COc2cccc(-c3ccc(Cc4nc5ccc(C(=O)O)cc5n4CC4(C#N)CC4)c(F)c3)n2)c(F)c1 [Example 13, 2-(4-(6-((4-cyano-2-fluorobenzyl)oxy)pyridin-2-yl)-2-fluorobenzyl)-1-((1-cyanocyclopropyl)methyl)-1H-benzo[d]imidazole-6-carboxylic acid] | 4.17 | 2.7 | – | –
22 | CC(C)(C#N)Cn1c(Cc2ccc(-c3cccc(OCc4ccc(C#N)cc4F)n3)cc2F)nc2ccc(C(=O)O)cc21 [Example 14, 2-(4-(6-((4-cyano-2-fluorobenzyl)oxy)pyridin-2-yl)-2-fluorobenzyl)-1-(2-cyano-2-methylpropyl)-1H-benzo[d]imidazole-6-carboxylic acid] | 5 | 3.14 | – | –
23 | N#CCC1(Cn2c(Cc3ccc(-c4cccc(OCc5ccc(C#N)cc5F)n4)cc3F)nc3ccc(C(=O)O)cc32)CC1 [Example 16, 2-(4-(6-((4-cyano-2-fluorobenzyl)oxy)pyridin-2-yl)-2-fluorobenzyl)-1-((1-(cyanomethyl)cyclopropyl)methyl)-1H-benzo[d]imidazole-6-carboxylic acid] | 5.5 | 0.55 | – | –
24 | N#Cc1ccc(COc2cccc(-c3ccc(Cc4nc5ccc(C(=O)O)cc5n4CC4CCS4(=O)=O)c(F)c3)n2)c(F)c1 (stereo not drawn) [Example 17, 2-(4-(6-((4-cyano-2-fluorobenzyl)oxy)pyridin-2-yl)-2-fluorobenzyl)-1-((1,1-dioxidothietan-2-yl)methyl)-1H-benzo[d]imidazole-6-carboxylic acid] | 2.67 | 11 | – | –
